According to patent US12319655B2, “RAF kinase inhibitors and methods of use thereof” (Deciphera Pharmaceuticals, LLC, priority 2021, dated 2025):
pIC50: −log10 of the molar value.

Assays:
WM3928 cells = test: WM3928 Cell Proliferation Assay (2); format: cell-based
Protocol: WM3928 Cell Proliferation Assay (2)
WM3928 cells (#WM3928-01-0001) are obtained from Rockland Immunochemicals Inc (Gilbertsville, PA). Briefly, cells were grown in MCDB 153 medium (Sigma, #M7403, St. Louis, MO) supplemented with 20% Leibovitz's L-15 (ThermoFisher #11415-064, Waltham, MA), 2% heat inactivated fetal bovine serum (ThermoFisher, #A3840001, Waltham, MA), 5 μg/mL Insulin (Bovine Pancreas) (Sigma, #10516, St. Louis, MO), 1.68 mM Calcium Chloride (Sigma, #C-34006, St. Louis, MO) and 1% Penicillin/Streptomycin/L-Glutamine (ThermoFisher #10378016, Waltham, MA) at 37° C., 5% CO2, and 95% humidity. Cells are expanded until reaching 70-95% confluency at which point they are sub-cultured or harvested for assay use. Using the Beckman Coulter Echo 650, a serial dilution of test compound is dispensed into a 384-well black clear bottom plate in triplicate. Seven hundred fifty cells are added per well in 50 μL complete growth medium in the 384-well plate. Plates are incubated for 67-72 hours at 37° C., 5% CO2, and 95% humidity. At the end of the incubation, 10 μL of a 440 μM solution of resazurin (Sigma, #199303, St. Louis, MO) in PBS is added to each well of the plate and plates are incubated for an additional 3-6 hours at 37° C., 5% CO2, and 95% humidity. Plates are read on a Synergy2 or equivalent reader (Biotek, Winooski VT) using an excitation of 540 nm and an emission of 600 nm. Data is analyzed using Prism software (GraphPad, San Diego, CA) to calculate IC50 values.

[1] = biological target: A-Raf kinase (SEQ. ID No: 1) (Homo sapiens (Human), UniProt P10398, Y301D/Y302D); test: Biochemical Assay for A-Raf (2); conditions: Table J, biochemical assay (2); read-out: ARAF (2)
Sequence of A-Raf kinase (SEQ. ID No: 1) (P10398 other isoform, or with tags, fused parts or gaps Y301D (already in the parent)/Y302D (already in the parent)): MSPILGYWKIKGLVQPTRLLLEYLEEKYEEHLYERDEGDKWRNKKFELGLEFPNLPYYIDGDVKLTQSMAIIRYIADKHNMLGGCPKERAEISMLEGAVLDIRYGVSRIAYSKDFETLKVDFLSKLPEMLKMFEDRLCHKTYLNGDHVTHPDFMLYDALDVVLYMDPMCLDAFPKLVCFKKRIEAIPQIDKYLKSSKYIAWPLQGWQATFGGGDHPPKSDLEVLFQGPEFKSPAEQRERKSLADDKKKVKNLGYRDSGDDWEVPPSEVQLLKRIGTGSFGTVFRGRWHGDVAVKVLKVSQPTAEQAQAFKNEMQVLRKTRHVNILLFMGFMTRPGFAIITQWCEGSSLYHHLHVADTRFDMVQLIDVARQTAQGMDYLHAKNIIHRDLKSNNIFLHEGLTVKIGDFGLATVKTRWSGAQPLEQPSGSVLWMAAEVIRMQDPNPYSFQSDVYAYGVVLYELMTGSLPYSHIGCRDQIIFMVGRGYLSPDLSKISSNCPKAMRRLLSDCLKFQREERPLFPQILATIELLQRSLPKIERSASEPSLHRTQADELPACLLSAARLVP
Protocol: Biochemical Assay for A-Raf (2)
(§1) Activity of A-Raf kinase (SEQ. ID No: 1) was determined spectroscopically using a coupled pyruvate kinase/lactate dehydrogenase assay that continuously monitors the ATP hydrolysis-dependent oxidation of NADH (e.g., Schindler et al., Science, 2000, 289, 1938-1942). Assays were conducted in 384-well plates (25 μL final volume) using 20 nM A-Raf (Eurofins), 1.5 units pyruvate kinase, 2.1 units lactate dehydrogenase, 1 mM phosphoenol pyruvate, 0.7 mM NADH, 100 nM MEK (SignalChem), and 1 mM ATP in assay buffer (100 mM Tris, pH 7.5, 15 mM MgCl2, 0.5 mM DTT, 0.1% octyl-glucoside, 0.002% (w/v) BSA, and 0.002% Triton X-100). Inhibition of A-Raf was measured by adding serial diluted test compound (final assay concentration of 1% DMSO). A decrease in absorption at 340 nm was monitored hourly for 4 h at 30° C. on a multi-mode microplate reader (BioTek). The reaction rate was calculated using the 3 to 4 h time frame. The reaction rate at each concentration of compound was converted to percent inhibition using controls (i.e., reaction with no test compound and reaction with a known inhibitor) and IC50 values were calculated by fitting a four-parameter sigmoidal curve to the data using Prism (GraphPad software).

A375 cells = test: A375 Cell Proliferation Assay (2); format: cell-based; conditions: Homo sapiens, A-375
Protocol: A375 Cell Proliferation Assay (2)
A375 cells (catalog (#CRL-1619) are obtained from the American Type Culture Collect (ATTC, Manassas, VA). Briefly, cells were grown in DMEM High Glucose supplemented with 10% characterized fetal bovine serum (Invitrogen, Carlsbad, CA) and 1% Penicillin/Streptomycin/L-Glutamine at 37° C., 5% CO2, and 95% humidity. Cells are expanded until reaching 70-95% confluency at which point they are sub-cultured or harvested for assay use. Using the Beckman Coulter Echo 650, a serial dilution of test compound is dispensed into a 384-well black clear bottom plate in triplicate. Six hundred twenty-five cells are added per well in 50 μL complete growth medium in the 384-well plate. Plates are incubated for 67-72 h at 37° C., 5% CO2, and 95% humidity. At the end of the incubation, 10 μL of a 440 μM solution of resazurin (Sigma, St. Louis, MO) in PBS is added to each well of the plate and plates are incubated for an additional 3-6 h at 37° C., 5% CO2, and 95% humidity. Plates are read on a Synergy2 or equivalent reader (Biotek, Winooski VT) using an excitation of 540 nm and an emission of 600 nm. Data is analyzed using Prism software (GraphPad, San Diego, CA) to calculate IC50 values.

[2] = biological target: B-Raf (V600E) (SEQ. ID NO: 4) kinase (Homo sapiens (Human), UniProt P15056, V600E); test: Biochemical Assay for B-Raf (V600E) (2); conditions: Table J, BRAF V600E, biochemical assay (2); read-out: BRAF VE (2)
Sequence of B-Raf (V600E) (SEQ. ID NO: 4) kinase (P15056 416-766 V600E): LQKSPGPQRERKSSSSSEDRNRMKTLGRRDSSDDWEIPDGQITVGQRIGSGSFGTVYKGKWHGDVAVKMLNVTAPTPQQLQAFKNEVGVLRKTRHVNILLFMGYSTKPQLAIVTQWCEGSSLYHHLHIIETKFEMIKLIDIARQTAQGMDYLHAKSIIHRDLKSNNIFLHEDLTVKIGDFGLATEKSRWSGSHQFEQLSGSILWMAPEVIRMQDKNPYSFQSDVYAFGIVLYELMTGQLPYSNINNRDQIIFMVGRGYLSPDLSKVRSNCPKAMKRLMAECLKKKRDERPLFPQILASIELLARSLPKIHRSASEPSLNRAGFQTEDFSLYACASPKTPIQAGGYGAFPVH
Protocol: Biochemical Assay for B-Raf (V600E) (2)
as §1, with “of B-Raf (V600E)” for “of A-Raf kinase”, “ID NO: 4) kinase” for “ID No: 1)”, “using 0.5” for “using 20”, “nM B-Raf (deCode),” for “nM A-Raf (Eurofins),”, “of B-Raf (V600E)” for “of A-Raf”

Q: Cc1ncc(NC(=O)c2ccnc(C(C)(F)F)c2)cc1-c1ccnc(-c2ccnc(NC(=O)C3CC3)c2)c1 [Example 466] was tested. Which pIC50 (WM3928 cells) did it give?
A: ≥ 7.00

Q: What about the pIC50 [1] of the same compound?
A: 6.00 to 6.30

Q: What about the pIC50 (A375 cells) of the same compound?
A: 6.30 to 7.00

Q: What about the pIC50 [2] of the same compound?
A: ≥ 7.00

Q: Cc1ccc(NC(=O)c2ccnc(C(C)C)c2)cc1-c1ccnc(-c2ccnc(NC(=O)C3CC3)c2)c1 [Example 467] was tested. Which pIC50 (WM3928 cells) did it give?
A: ≥ 7.00

Q: What about the pIC50 [1] of the same compound?
A: 6.30 to 7.00

Q: And the pIC50 (A375 cells)?
A: ≥ 7.00

Q: What about the pIC50 [2] of the same compound?
A: ≥ 7.00

Q: With Cc1ncc(NC(=O)c2ccnc(C(C)C)c2)cc1-c1ccnc(-c2ccnc(NC(=O)C3CC3)c2)c1 [Example 468] as the compound, how does the pIC50 (WM3928 cells) read?
A: ≥ 7.00

Q: And the pIC50 [1]?
A: 6.30 to 7.00

Q: And the pIC50 (A375 cells)?
A: 6.30 to 7.00

Q: What about the pIC50 [2] of the same compound?
A: ≥ 7.00

Q: Which results are given for CNC(=O)c1cc(-c2cc(-c3cc(NC(=O)c4ccnc(C(C)(C)F)c4)ccc3C)c(F)cn2)ccn1 [Example 469]?
A: pIC50 (WM3928 cells): 6.30 to 7.00; pIC50 [1]: 5.00 to 6.00; pIC50 (A375 cells): 6.30 to 7.00; pIC50 [2]: ≥ 7.00

Q: How did the pIC50 (WM3928 cells) turn out when CNC(=O)c1cc(-c2cc(-c3cc(NC(=O)c4ccnc(C(C)(C)F)c4)ccc3C)cc(C)n2)ccn1 [Example 470] was run?
A: ≥ 7.00

Q: What about the pIC50 [1] of the same compound?
A: 5.00 to 6.00

Q: What about the pIC50 (A375 cells) of the same compound?
A: 6.30 to 7.00

Q: What about the pIC50 [2] of the same compound?
A: ≥ 7.00

Q: CNC(=O)c1cc(-c2cc(-c3cc(NC(=O)c4ccnc(C(C)(C)F)c4)ccc3C(F)(F)F)ccn2)ccn1 [Example 471] was tested. Which pIC50 (WM3928 cells) did it give?
A: 5.00 to 6.00

Q: And the pIC50 [1]?
A: 6.30 to 7.00

Q: And the pIC50 (A375 cells)?
A: 5.00 to 6.00

Q: What about the pIC50 [2] of the same compound?
A: 5.00 to 6.00

Q: With CNC(=O)c1cc(-c2cc(-c3cc(NC(=O)c4ccnc(C(C)(C)F)c4)ccc3C)c(C)cn2)ccn1 [Example 472] as the compound, how does the pIC50 (WM3928 cells) read?
A: 6.00 to 6.30

Q: And the pIC50 [1]?
A: 5.00 to 6.00

Q: What about the pIC50 (A375 cells) of the same compound?
A: 6.30 to 7.00

Q: And the pIC50 [2]?
A: ≥ 7.00

Q: With CNC(=O)c1cc(-c2cc(-c3cc(NC(=O)c4ccnc(C(C)(C)F)c4)ccc3C)cnn2)ccn1 [Example 473] as the compound, how does the pIC50 (WM3928 cells) read?
A: ≥ 7.00

Q: What about the pIC50 [1] of the same compound?
A: 5.00 to 6.00

Q: What about the pIC50 (A375 cells) of the same compound?
A: ≥ 7.00

Q: And the pIC50 [2]?
A: ≥ 7.00

Q: With CNC(=O)c1cc(-c2cc(-c3cc(NC(=O)c4ccnc(C(C)(C)F)c4)ccc3C)ncn2)ccn1 [Example 474] as the compound, how does the pIC50 (WM3928 cells) read?
A: ≥ 7.00

Q: And the pIC50 [1]?
A: 6.00 to 6.30

Q: And the pIC50 (A375 cells)?
A: ≥ 7.00

Q: And the pIC50 [2]?
A: ≥ 7.00

Q: Which results are given for CNC(=O)c1cc(-c2cc(-c3cc(F)cc(NC(=O)c4ccnc(C(C)(C)F)c4)c3F)ccn2)ccn1 [Example 475]?
A: pIC50 (WM3928 cells): 5.00 to 6.00; pIC50 [1]: 5.00 to 6.00; pIC50 (A375 cells): 5.00 to 6.00; pIC50 [2]: 5.00 to 6.00

Q: How did the pIC50 (WM3928 cells) turn out when Cc1ccc(NC(=O)c2ccnc(C(C)(C)F)c2)cc1-c1ccnc(-c2ccnc(C(N)=O)c2)c1 [Example 476] was run?
A: ≥ 7.00

Q: And the pIC50 [1]?
A: 6.00 to 6.30

Q: And the pIC50 (A375 cells)?
A: ≥ 7.00

Q: And the pIC50 [2]?
A: ≥ 7.00

Q: With CNC(=O)c1cc(-c2cc(-c3cc(NC(=O)c4cnnc(C(F)(F)F)c4)ccc3C)ccn2)ccn1 [Example 477] as the compound, how does the pIC50 (WM3928 cells) read?
A: 6.00 to 6.30

Q: And the pIC50 [1]?
A: 5.00 to 6.00

Q: What about the pIC50 (A375 cells) of the same compound?
A: 5.00 to 6.00

Q: What about the pIC50 [2] of the same compound?
A: 6.30 to 7.00

Q: How did the pIC50 (WM3928 cells) turn out when CNC(=O)c1cc(-c2cc(-c3cc(NC(=O)c4ccnc(C(C)(C)F)c4)cc(F)c3F)ccn2)ccn1 [Example 478] was run?
A: 6.30 to 7.00

Q: What about the pIC50 [1] of the same compound?
A: 5.00 to 6.00

Q: What about the pIC50 (A375 cells) of the same compound?
A: 5.00 to 6.00

Q: What about the pIC50 [2] of the same compound?
A: ≥ 7.00

Q: How did the pIC50 (WM3928 cells) turn out when CNC(=O)c1cc(-c2cc(-c3cc(NC(=O)c4ccnc(C(C)(C)F)c4)ccc3F)ccn2)ccn1 [Example 479] was run?
A: ≥ 7.00

Q: What about the pIC50 [1] of the same compound?
A: 6.30 to 7.00

Q: What about the pIC50 (A375 cells) of the same compound?
A: 6.30 to 7.00

Q: And the pIC50 [2]?
A: 6.30 to 7.00

Q: How did the pIC50 (WM3928 cells) turn out when CNC(=O)c1cc(-c2cc(-c3cc(NC(=O)c4ccnc(C(C)(C)F)c4)cc(F)c3C)ccn2)ccn1 [Example 480] was run?
A: ≥ 7.00

Q: What about the pIC50 [1] of the same compound?
A: 5.00 to 6.00

Q: What about the pIC50 (A375 cells) of the same compound?
A: 6.30 to 7.00

Q: What about the pIC50 [2] of the same compound?
A: ≥ 7.00

Q: CNC(=O)c1cc(-c2cc(-c3cc(NC(=O)c4ccnc(C(C)(C)F)c4)ccn3)ccn2)ccn1 [Example 481] was tested. Which pIC50 (WM3928 cells) did it give?
A: 5.00 to 6.00

Q: What about the pIC50 [1] of the same compound?
A: 5.00 to 6.00

Q: And the pIC50 (A375 cells)?
A: 5.00 to 6.00

Q: What about the pIC50 [2] of the same compound?
A: 5.00 to 6.00

Q: Which results are given for CNC(=O)c1cc(-c2cc(-c3cc(NC(=O)c4ccnc(C(C)(C)F)c4)c(F)cc3F)ccn2)ccn1 [Example 482]?
A: pIC50 (WM3928 cells): 6.30 to 7.00; pIC50 [1]: 6.00 to 6.30; pIC50 (A375 cells): 6.30 to 7.00; pIC50 [2]: ≥ 7.00

Q: With Cc1cc(-c2cc(NC(=O)c3ccnc(C(C)(C)F)c3)ccc2C)cc(-c2ccnc(C#N)c2)n1 [Example 483] as the compound, how does the pIC50 (WM3928 cells) read?
A: 6.00 to 6.30

Q: What about the pIC50 [1] of the same compound?
A: 5.00 to 6.00

Q: What about the pIC50 (A375 cells) of the same compound?
A: 5.00 to 6.00

Q: And the pIC50 [2]?
A: 6.30 to 7.00

Q: With Cc1cc(-c2cc(NC(=O)c3ccnc(C(C)(C)F)c3)ccc2C)cc(-c2ccnc(C(N)=O)c2)n1 [Example 484] as the compound, how does the pIC50 (WM3928 cells) read?
A: ≥ 7.00

Q: What about the pIC50 [1] of the same compound?
A: 6.00 to 6.30

Q: What about the pIC50 (A375 cells) of the same compound?
A: ≥ 7.00

Q: And the pIC50 [2]?
A: ≥ 7.00
